Series [1] is described as follows: Thermal stability of compound in DMSO/methanol assessed as onset temperature by UV spectroscopic method. The series is classed as physicochemical.
Series [2] in a line: Thermal stability of compound in DMSO/methanol assessed as decomposition temperature by UV spectroscopic method. The series is classed as physicochemical.
Series [3] is described as follows: Antioxidant activity assessed as DPPH free radical scavenging activity at 400 uM incubated for 60 mins by spectrophotometric method relative to control. The series is classed as functional. A general note: DPPH is a stable violet radical that fades when it is reduced.
A short description of series [4]: Antioxidant activity assessed as DPPH free radical scavenging activity at 300 uM incubated for 60 mins by spectrophotometric method relative to control. The series is classed as functional.
The nature of series [5]: Thermal stability of compound in DMSO/methanol assessed as mass loss by UV spectroscopic method. The series is classed as physicochemical. As to conditions: read-out: Drug degradation.
A short description of series [6]: Antioxidant activity assessed as DPPH free radical scavenging activity at 200 uM incubated for 60 mins by spectrophotometric method relative to control. The series is classed as functional.
The nature of series [7]: Antioxidant activity assessed as DPPH free radical scavenging activity at 100 uM incubated for 60 mins by spectrophotometric method relative to control. The series is classed as functional.
Series [8] can be described thus: Photoprotection activity against UV radiation assessed as ratio of UVA to UVB.
Series [9] in a line: Photoprotection activity against UV radiation.

Turning to `O=C(N/N=C/c1ccc(Oc2nc(Oc3ccc(/C=N/NC(=O)c4cccc(O)c4)cc3)nc(Oc3ccc(/C=N/NC(=O)c4cccc(O)c4)cc3)n2)cc1)c1cccc(O)c1`, the T in series [1] is 248.22 °C; in [2] it was 297.87 °C. Besides, the Activity in series [3] is 6.3%; in [4], 5.8%; in series [6], 4.4%; in series [7], 4.2%. For the same compound, the degraded in series [5] worked out at 18.7%. Besides, the Ratio in series [8] came to 0.4. In series [9], this compound gave an SPF of 4. This compound returned a UVAPF in [9] of 2.
Take `O=C(N/N=C/c1ccc(Oc2nc(Oc3ccc(/C=N/NC(=O)c4ccc(O)cc4)cc3)nc(Oc3ccc(/C=N/NC(=O)c4ccc(O)cc4)cc3)n2)cc1)c1ccc(O)cc1`: the T in series [1] came out at 267.35 °C; in series [2] it was 272.15 °C. Besides, the Activity in series [3] came out at 8.2%; in series [4], 6.7%; in series [6], 5.6%; in series [7], 4.4%. Further, the degraded in series [5] came to 11.6%. Further, the Ratio in series [8] was found to be 0.5. The compound also had an SPF in series [9] of 7. Moreover, in series [9], the UVAPF is 4.
Regarding `Oc1ccc(/C=C/c2cc(O)cc(O)c2)cc1` [RESVERATROL], the T came to 263.46 °C in [1] and 266.95 °C in [2]. Also, the Activity in series [3] was determined as 62.2%; in series [4], 56.2%; in series [6], 55.9%; in series [7], 46.8%. The degraded in series [5] is 32.9%. For the same compound, the Ratio in series [8] is 0.7. The compound also registered an SPF in series [9] of 2. The compound further displayed a UVAPF in series [9] of 2.
For `O=C(N/N=C/c1ccc(Oc2nc(Oc3ccc(/C=N/NC(=O)c4ccccc4)cc3)nc(Oc3ccc(/C=N/NC(=O)c4ccccc4)cc3)n2)cc1)c1ccccc1`, the figures for the T in series [1] and in series [2] were 275.89 °C and 294.21 °C, respectively. The Activity in [3] is 2.4%; in [4], 2%; in [6], 1.3%; in series [7], 0.9%. In series [5], the degraded came out at 36.7%. Moreover, in series [8], the Ratio stood at 0.6. This compound had an SPF in series [9] of 9. In addition, in [9], the UVAPF was found to be 5.
On to `O=C(N/N=C/c1ccc(Oc2nc(Oc3ccc(/C=N/NC(=O)c4ccncc4)cc3)nc(Oc3ccc(/C=N/NC(=O)c4ccncc4)cc3)n2)cc1)c1ccncc1`, for which the T in [1] is 235.6 °C; in series [2], 236.25 °C. Further, the Activity in series [3] amounted to 6.1%; in [4], 2.4%; in series [6], 0.5%; in series [7], 0%. Further, the degraded in series [5] was determined as 36.8%. For the same compound, the Ratio in series [8] worked out at 0.4. Also, the SPF in [9] is 5. This compound gave a UVAPF in series [9] of 3.
As for `O=C(N/N=C/c1ccc(Oc2nc(Oc3ccc(/C=N/NC(=O)c4ccccc4O)cc3)nc(Oc3ccc(/C=N/NC(=O)c4ccccc4O)cc3)n2)cc1)c1ccccc1O`, the T in [1] was found to be 264.89 °C; in [2], 269.71 °C. Moreover, the Activity in series [3] came to 0.8%; in series [4] it was 0.3%; in series [6], 0%; in series [7], 0%. For the same compound, in [5], the degraded turned out to be 19.6%. Also, the Ratio in series [8] came to 0.7. Also, in series [9], the SPF came to 17. The same compound returned a UVAPF in series [9] of 13.
Turning to `O=C(N/N=C/c1ccc(Oc2nc(Oc3ccc(/C=N/NC(=O)c4ccc([N+](=O)[O-])cc4)cc3)nc(Oc3ccc(/C=N/NC(=O)c4ccc([N+](=O)[O-])cc4)cc3)n2)cc1)c1ccc([N+](=O)[O-])cc1`, the T in [1] came out at 291.8 °C; in [2] it was 304.87 °C. Further, the Activity worked out at 3.5% in series [3], 2.7% in series [4], 2.2% in [6] and 0.5% in [7]. In series [5], the degraded was determined as 37.3%. Further, the Ratio in series [8] was found to be 0.8. In addition, in series [9], the SPF is 4. Moreover, in series [9], the UVAPF was 3.
As for `CC(C)(C)c1ccc(C(=O)N/N=C/c2ccc(Oc3nc(Oc4ccc(/C=N/NC(=O)c5ccc(C(C)(C)C)cc5)cc4)nc(Oc4ccc(/C=N/NC(=O)c5ccc(C(C)(C)C)cc5)cc4)n3)cc2)cc1`, the T in series [1] came out at 324.37 °C; in [2], 326.22 °C. For the same compound, the Activity in series [3] was found to be 5.9%; in [4], 4.8%; in [6], 4.3%; in [7] it was 4%. For the same compound, the degraded in series [5] turned out to be 41.2%. The Ratio in series [8] is 0.5. For the same compound, the SPF in [9] was found to be 14. For the same compound, the UVAPF in series [9] amounted to 7.
Regarding `O=C(N/N=C/c1ccc(Oc2nc(Oc3ccc(/C=N/NC(=O)c4ccc(O)cc4O)cc3)nc(Oc3ccc(/C=N/NC(=O)c4ccc(O)cc4O)cc3)n2)cc1)c1ccc(O)cc1O`, the T was found to be 218.88 °C in [1] and 309.94 °C in series [2]. Moreover, the Activity was 75.6% in [3], 75.1% in [4], 74.2% in series [6] and 55.3% in series [7]. In addition, the degraded in series [5] amounted to 39.8%. For the same compound, in series [8], the Ratio amounted to 0.5. The compound further yielded an SPF in series [9] of 3. The same compound returned a UVAPF in [9] of 2.
Regarding `CCCCC(CC)COC(=O)c1ccc(Nc2nc(Nc3ccc(C(=O)OCC(CC)CCCC)cc3)nc(Nc3ccc(C(=O)OCC(CC)CCCC)cc3)n2)cc1` (stereo not given), the T in series [1] was found to be 119.99 °C; in [2], 232.29 °C. Further, the Activity in series [3] was 3.5%; in series [4], 2.6%; in series [6] it was 1.6%; in series [7], 0%. In addition, the degraded in series [5] amounted to 68.7%. Moreover, the Ratio in [8] came out at 0.8. Further, in series [9], the SPF came to 3. The compound further returned a UVAPF in series [9] of 3.
